The text below walks through data of patent US20060046972A1, “Cytotoxic nucleoside analog compound 003 for treating cancer” (Parker Hughes Institute, priority 2004, published 2006).

Structures are written as SMILES.

The test system of series [1] is Microsomal or cytosolic fractions of Nalm6 cells. The experiment in a line: Enzyme kinetics of Compound 003 metabolism in subcellular fractions, Nalm6. It counts as in vitro ADME, human. Here is the method: 1−3×10^8 Nalm6 and BT20 cells were washed with PBS, resuspended in homogenizing buffer containing 10 mM Tris-HCl (pH 7.4) and 250 mM sucrose. Cells were sonicated and spun at 10,000×g, and the resulting supernatant was centrifuged again at 100,000×g to isolate microsomal and cytosolic fractions. The microsomal pellet was resuspended in a buffer containing 10 mM Tris-HCl (pH 7.4), 250 mM sucrose, 1 mM EDTA, and 20% glycerol. Microsomes or cytosols of Nalm6 (80 μg. and 86 μg, respectively) and BT20 cells (59 μg and 160 μg, respectively) were preincubated with or without 1 mM paraoxon in Tris-HCl buffer (pH 7.4) in a total volume of 250 μl for 10 minutes; 1. mM COMPOUND 003 was then added to the incubation mixture, and the reactions were allowed to proceed for another 30 minutes and terminated by addition of 125 μl of acetone. Protein precipitation was then removed by centrifugation; 100 μl of the supernatant was injected directly into the HPLC.
2.2.9 Enzyme Kinetics of Compound 003 Metabolism Microsomal or cytosolic fractions of Nalm6 and BT20 cells were incubated with COMPOUND 003 at various concentrations from 10 μM to 1.2 mM in similar reaction conditions as described above, except without the inhibitor. The reactions were allowed to proceed for 40 minutes. Km and Vmax in the Michaelis-Menten model were estimated by WinNonlin program (Scientific Consulting, Inc.)

The test system of series [2] is NALM6 cells. The experiment in a line: Gene profiling, Atlas Human cDNA Expression arrays. It counts as cell-based. Here is the method: Gene Profiling using the Atlas Human cDNA Expression arrays from Molecular Dynamics was preformed according to the manufacturer's specification, as described below.
Total RNA was prepared from NALM6 cells treated with Compound 003 (5, 50TM, vehicle) using Tripure isolation reagent (Boehringer Mannheim); the reagent is a monophasic solution of phenol and guanidine thiocyanate, followed by Dnase treatment (RQ1 Rnase-Free Dnase, Promega). Total RNA was quantified using standard spectrophotometric methods.
For probe preparation and hybridization, approximately 5 micrograms of total RNA was converted into radioactively labeled cDNA using […] (Amersham) by reverse transcriptase (Clontech). Chroma Spin columns (Clontech) were used to purify labeled cDNA. Atlas cDNA probe was denatured with 1M NaOH/10 mM EDTA and neutralized with 1M NaH2PO4 and C0t-1 DNA at 68° C. Prehybridization solution was discarded and arrays were hybridized overnight. Arrrays were washed 4 times by using 2×SSC/1% SDS and 2 times by using 0.1×SSC/0.5% SDS. Membranes were sealed and exposed to a phosphoscreen (Molecular Dynamics). The expression levels were quantified using 8 bit gray levels using image analysis software (Imagene 4.2, Biodiscovery; Inc).
For the Atlas Human cDNA Expression array, 588 genes were subdivided into these six functional groups: (A) Oncogenes, Tumor suppressors Cell Cycle regulators, (B) Ion channels and transport, Modulators, stress response, (C) Apoptosis, DNA synthesis, repair and recombination, (D) Transcription factors, DNA binding proteins, (E) Receptors, Cell surface antigens, Cell adhesion & (F) Growth factors, cytokines, chemokines, Interleukins, Hormones. The letters correspond to individual quadrants on the array and may be noted as the first letter in each abbreviation in Table 4.
Spots on the macro arrays (5, 50 Tm and control) were analyzed using the spot finder technique in the Imagene software. The integrity and fragmentation: due to saturated pixels, of the spots was assessed and appropriate background measurements were chosen to detect signals. […] All drug treated samples (5, 50TM) were compared to no drug controls using a linear regression method for log2 transformed density readings (Genesight 3.1, Biodiscovery). A piecewise linear regression method (3 bins, minimum of 20 elements per bin) was used normalize density readings across the three arrays to minimize the effect of low expression and saturated signals on the regression. All housekeeping genes were monitored for detection of false positive signals.

A short description of series [3]: Stability in simulated gastric fluid. It counts as in vitro ADME. Here is the method: Plasma samples, simulated gastric fluid and intestinal fluids (United State Pharmacopeia XXII methods) were separately spiked with COMPOUND 003 to yield final concentrations of 500 μM. Spiked samples were incubated at 37° C. At a predetermined time (5, 10, 15, 30 60 and 120 minutes), an aliquot (200 μl) of the spiked plasma sample was extracted as described above.

Take `COC(=O)C(C)NP(=O)(OCC1OC(n2cc(C)c(=O)[nH]c2=O)CC1N=[N+]=[N-])Oc1ccc(OC)cc1` (stereo not shown) [Compound 003, 3′-azidothymidine 5′-[p-methoxyphenylmethoxyalaninyl phosphate]]: in series [1] (cytosolic fraction), the Km (commonly the substrate concentration at which the rate is half of its maximum) was found to be 765 µM and the maximal velocity (Vmax) – broadly, the top rate of the reaction or transport when substrate is in excess – was found to be 541 pmol/mg/min. For the same compound, in series [1] (microsomal fraction), the Michaelis constant (Km) is 163 µM and the Vmax is recorded as 82.3 pmol/mg/min. In series [2], the “decreased expression of GADD 153 gene” value is about 3.5 fold and the “downregulation of c-jun proto-oncogene” value is given as about 2 fold. For the same compound, in series [2] (50 μM), the “increase in the gene for myeloid cell nuclear differentiation antigen (MNDA)” value is given as about 4 fold and the “increased expression of FAN gene” value turned out to be 3 fold. Also, the decomposition product result in series [3] (gastric fluid) is recorded as “quickly decomposed to yield a intermediate product”. The stability result in series [3] (simulated gastric fluid, 500 μM, 37° C.) is listed as “unstable”.
